Reference: ChEMBL document CHEMBL1148902, “A cytotoxic cyclic heptapeptide from the seeds of Annona cherimola” (J Nat Prod, 2004)
Where a SMILES comes first, the peptide text is derived from it.

Test system: KB
Assay: Cytotoxicity against human KB cells
Assay type: functional, cell-based

Row | Structure (SMILES) | IC50 [nM]
1 | CC[C@H](C)[C@@H]1NC(=O)[C@H](Cc2c[nH]c3ccccc23)NC(=O)[C@H](C)NC(=O)[C@H](C)NC(=O)CNC(=O)[C@@H]2CCCN2C(=O)[C@@H]2CCCN2C1=O [CHERIMOLACYCLOPEPTIDE C] (cyclo(AAWIPPG)) | 72
2 | COc1cccc2c1C(=O)c1c(O)c3c(c(O)c1C2=O)C[C@@](O)(C(=O)CO)C[C@@H]3O[C@H]1C[C@H](N)[C@H](O)[C@H](C)O1 [DOXORUBICIN] | 20
